Measurements reported in patent US20230263770A1, “THERAPY OF POST-OPERATIVE NAUSEA AND VOMITING” (ACACIA PHARMA LTD, priority 2020, published 2023).
Entries after “also recorded” stand apart in the source; their conditions may differ.

Assays:
[1] = tested on: adult surgical patients at moderate-to-high risk of suffering PONV; assay: Phase II dose-ranging trial, IV amisulpride as PONV prophylaxis; type: in vivo, human; settings: for incidence of PONV: prophylaxis
Procedure: In a multi-centre, double-blind, randomised, dose-ranging Phase II trial (conducted by the applicant), amisulpride was given intravenously to adult surgical patients at moderate-to-high risk of suffering PONV (prophylaxis), at doses of 1 mg, 5 mg and 20 mg, with a fourth group receiving placebo.

[2] = tested on: adult surgical patients at moderate-to-high risk of suffering PONV; assay: Two Phase III placebo-controlled trials, PONV prophylaxis; type: in vivo, human; settings: 5 mg, 626 evaluable patients, vs 59% placebo, p<0.01
[3] = tested on: adult surgical patients at high risk of suffering PONV; assay: Phase III trial, amisulpride in combination with a standard anti-emetic, PONV prophylaxis; type: in vivo, human; settings: 5 mg in combination with a standard anti-emetic, 1147 evaluable patients; vs 53% placebo combination, p<0.001
[4] = tested on: patients who had not received prior prophylaxis; assay: Clinical trial, treatment of PONV in patients without prior prophylaxis; type: in vivo, human; settings: doses of 5 mg and 10 mg; no difference between the doses
Procedure: In another clinical trial conducted by the applicant, amisulpride at doses of 5 mg and 10 mg were compared with placebo for the treatment of PONV, in patients who had not received prior prophylaxis.

[5] = tested on: patients having a high BMI (≥30); assay: Study 1: prophylaxis of PONV in patients with a high BMI (complete response and secondary endpoints); type: in vivo, human; settings: for CR (PONV) 0-2 hours / CR (PONV) 0-24 hours / CR (emesis) / CR (nausea) / CR (severe nausea): prophylactic therapy, 5 mg
Procedure: (§1) A randomised, double-blind, placebo-controlled study of amisulpride for IV injection as treatment against post-operative nausea and vomiting in patients having a high BMI (≥30) was conducted. The primary aim of the study was to compare the efficacy of 5 mg and 10 mg amisulpride to placebo as treatment or prevention of PONV, in patients with a high BMI.
(§2) The study was performed in adult patients (≥18 years) having a BMI ≥30 who were undergoing elective ambulatory (day-case) or in-patient surgery under general inhalational anaesthesia for an expected duration of at least one hour from induction of anaesthesia to extubation.
(§3) Amisulpride at a dose of 5 mg (prophylaxis) or 10 mg (rescue treatment) or matching placebo was given once by slow IV administration, over about 2 minutes.
(§4) The primary efficacy variable was the absence or presence of PONV during the 24-hour post-operative period, where PONV was defined as the occurrence of one or more emetic episodes (vomiting and/or retching) or the receipt of one or more doses of rescue anti-emetic medication in the 24 hours after wound closure (prophylaxis study) or dosing (treatment study). Absence of PONV by this definition was termed “Complete Response” (CR). A number of secondary variables were evaluated including the occurrence of emesis (vomiting and/or retching).
(§5) A comparison of the incidence of CR in the 0-2 and 0-24 hour periods after surgery between the amisulpride group and the placebo group using Pearson's X2 test with Yates's continuity correction at a one-sided significance level of 2.5%. The primary efficacy analysis population was the modified intent-to-treat (mITT) population.
Secondary efficacy variables assessed by incidence (e.g., emesis) were compared between the groups using Pearson's X2 test.

[6] = tested on: patients having a high BMI (≥30); assay: Study 1: rescue treatment of PONV in patients with a high BMI; type: in vivo, human; settings: for CR (PONV), rescue treatment: 10 mg
Procedure: as §1, §2, §3, §4, §5

patients with BMI ≥35 = assay: Study 1: treatment-emergent adverse events, prophylaxis in patients with BMI ≥35; type: in vivo, human
Procedure: as §1, §2, §3

[7] = tested on: bariatric surgery patients; assay: Study 1: complete response in bariatric surgery patients (prophylaxis and rescue treatment); type: in vivo, human
Procedure: (§6) The present invention is based on the results of a Phase III study of amisulpride as prophylaxis against PONV in high-risk patients, conducted by the applicant. The Phase III study results include data from two randomized, double-blind, placebo-controlled, multi-centre Phase III trials of amisulpride, either as a prophylaxis, or rescue treatment for PONV.
as §3, §4

[8] = tested on: patients undergoing bariatric surgery; assay: Study 1: treatment-emergent adverse events in patients undergoing bariatric surgery; type: in vivo, human; settings: 5 mg prophylaxis or 10 mg rescue treatment, n = 53
Procedure: as §6, §3

[9] = tested on: patients having a high BMI (≥30); assay: Study 1: prophylaxis of PONV in patients with a high BMI (complete response and secondary endpoints); type: in vivo, human; settings: IV 5 mg + another antiemetic
[10] = compared to the (R+)-enantiomer; cited from earlier work
[11] = prophylaxis, IV 5 mg + another antiemetic, BMI ≥35, mITT, P 0.011
[12] = 5 mg prophylaxis, BMI ≥35, n = 149

With `CCN1CCCC1CNC(=O)c1cc(S(=O)(=O)CC)c(N)cc1OC` (racemic) [Amisulpride, amisulpride] the “incidence of PONV” value ([1]; 1 mg intravenously, p<0.05 vs placebo (69%)) was 48%, the “incidence of PONV” value ([1]; 5 mg intravenously, p<0.01 vs placebo (69%)) was 40% and the “incidence of PONV compared to placebo” value ([1]; all amisulpride groups (1 mg, 5 mg and 20 mg)) was “lower”. The “incidence of PONV” value [2] was 48%, the “incidence of PONV” value [3] was 42% and the “treating PONV compared to placebo” value [4] was “significantly better than placebo”. The “CR (0-24 h), patients with CR/total” value ([5]; 5 mg prophylaxis, BMI ≥35, 42/129 for placebo) was 71/149, the “secondary endpoints compared to placebo (FIGS. 1 and 2)” value ([5]; 5 mg prophylaxis, BMI ≥35, all secondary endpoints with the exception of emesis) was “statistically significantly superior to placebo” and the “preventing PONV at 24 hours compared to placebo” value ([5]; 5 mg prophylaxis, overall study population and particularly BMI ≥35 subgroup) was “more effective than placebo”. For the same molecule, the “absolute risk reduction, amisulpride versus placebo” value ([5]; patients with BMI ≥35 (printed 235), 0-24 h) was 15.10, the “absolute risk reduction, amisulpride versus placebo” value ([5]; patients with a BMI <35, 0-24 h) was 10.50 and the “relative risk reduction (RRR) of the incidence of PONV” value ([5]; patients with a high BMI (printed 230), compared to RRR of the overall risk of PONV) was “much higher than expected”. The “CR (PONV) 0-2 hours” value ([5]; BMI ≥30, 251 patients) was 53.0%, the “CR (PONV) 0-24 hours” value ([5]; BMI ≥30, 251 patients) was 53.0% and the “CR (emesis)” value ([5]; BMI ≥30, 251 patients) was 12.6% (251 patients). The “CR (nausea)” value ([5]; BMI ≥30, 251 patients) was 55.0% (251 patients), the “CR (severe nausea)” value ([5]; BMI ≥30, 251 patients) was 41.8% (251 patients) and the “CR (emesis)” value ([5]; BMI ≥35, 149 patients) was 14.8% (149 patients). For the same molecule, the “CR (nausea)” value ([5]; BMI ≥35, 149 patients) was 58.4% (149 patients), the “CR (severe nausea)” value ([5]; BMI ≥35, 149 patients) was 45.0% (149 patients) and the “CR (PONV) 0-2 hours” value ([5]; BMI ≥35, 149 patients, p = 0.002) was 73.8% (p = 0.002). The “CR (PONV) 0-24 hours” value ([5]; BMI ≥35, 149 patients, p = 0.01) was 47.7% (p = 0.01), the “CR (0-24 h)” value [5, 11] was “(47.7%)” and the “CR (0-24 h), patients with CR/total” value [5, 11] was 71/149. For the same molecule, the “preventing PONV compared to placebo” value ([5]; prophylaxis, patients with a high BMI) was “more effective than placebo”, the “safety and efficacy for prevention or treatment of PONV (overall conclusion)” value ([5]; single IV dose, patients with a high BMI and bariatric surgery population, post-hoc analysis) was “safe and effective; also recorded: safe and efficacious” and the “CR (PONV), rescue treatment” value ([6]; BMI ≥30, 251 patients) was 46.6% (251 patients). The “CR (PONV), rescue treatment” value ([6]; BMI ≥35, 149 patients) was 51.7% (149 patients), the “effectiveness as rescue treatment for PONV” value ([6]; dose of 10 mg, prior prophylaxis drug given, high (≥30) BMI and/or bariatric surgery patients) was “particularly effective” and the “CR rate, rescue treatment compared to placebo” value ([6]; patients with a high BMI) was “higher”. The “Number of patients with any adverse event” value (patients with BMI ≥35; [12]) was 79 n, the “Patients with any adverse event” value (patients with BMI ≥35; [12]) was “(53) %” and the “incidence of any treatment-emergent adverse events (TEAE) or serious adverse events (SAE), amisulpride vs placebo” value (patients with BMI ≥35; high BMI and bariatric subgroups) was “No material difference”. For the same molecule, the “complete response rate (after 24 hours) compared to placebo” value ([7]; bariatric surgery patients, amisulpride prophylaxis or rescue treatment) was “higher”, the “complete response rate at 24 hours” value ([7]; bariatric surgery, amisulpride prophylaxis (5 mg), vs 7.3% placebo, P=0.16) was 18.2% and the “complete response rate at 24 hours” value ([7]; bariatric surgery, amisulpride rescue treatment (10 mg), vs 9.1% placebo, P=0.17) was 25.0%. The “complete response at 24 hours, patients/total” value ([7]; combined prophylaxis and rescue treatment bariatric subgroup, placebo 5/63) was 11/53, the “complete response rate at 24 hours” value ([7]; combined prophylaxis and rescue treatment bariatric subgroup, placebo 7.9%) was 20.8% and the “effectiveness for prophylaxis and rescue treatment of PONV in bariatric surgery patients vs other surgery types” value ([7]; human, in vivo) was “as effective”. The “Number of patients with any adverse event” value [8] was 30 n, the “Patients with any adverse event” value [8] was “(57) %” and the “CR (0-24 h)” value ([9]; BMI <35, mITT, P 0.002) was “(61.2%)”. For the same molecule, the “CR (0-24 h), patients with CR/total” value ([9]; BMI <35, mITT, P 0.002) was 259/423, the “CR (0-24 h)” value ([9]; all patients, mITT, P <0.001) was “(57.7%)” and the “CR (0-24 h), patients with CR/total” value ([9]; all patients, mITT, P <0.001) was 330/572.

For `CCN1CCCC1CNC(=O)c1cc(S(=O)(=O)CC)c(N)cc1OC` (single isomer, unassigned) [(S−)-enantiomer, (S−)-amisulpride], the “share of the therapeutic activity of amisulpride” value [10] is listed as “almost all of the therapeutic activity”.
